{"source": "PubChem BioAssay AID2060484", "about": "(Molecular Pharmacology Branch, DTP, NCI, 2025)", "tested_on": "SUM149PT spheroids with HUVEC/MSC, viability", "assay": "Anticancer human tumor SUM149PT cell line growth inhibition [GQUAD];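 also: spheroids exposed to drugs for seven days before readout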;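 as to viability, T/C: percent viability relative to DMSO vehicle control taken as 100%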", "conditions": "for viability, T/C: stronger effect = lower value", "text": "DNA G-quadruplex Stabilizer Agents in Combinations in Complex Spheroids\nA high-throughput screen of multi-cell type tumor spheroids was designed to identify active combinations of DNA G-quadruplex stabilizer agents and targeted small molecules. Complex spheroids include a stromal component modeled by human endothelial cells (HUVEC) and fibroblasts modeled by human mesenchymal stem cells (MSCs). The concentration ranges selected for each drug and investigational agent were based upon clinically achievable concentrations if the clinical Cmax of the agent was known.\nCompounds. The drugs and investigational agents: pidnarulex (CX-5461; NSC782164), APTO-253 (NSC789042), BRACO-19 (NSC847499), peposertib (NSC802822), ceralasertib (NSC780249), elimusertib (NSC800525), camonsertib (NSC841442), AZD-1390 (NSC803789), olaparib (NSC753686), talazoparib (NSC767125), ART-558 (NSC835418), sotorasib (NSC818433), MRTX-1133 (NSC836407), SN-38 (NSC673596), topotecan (NSC609699), etoposide (NSC141540), doxorubicin (NSC123127), gemcitabine (NSC613327), 5-fluorouracil (NSC19893), paclitaxel (NSC125973), vemurafenib (NSC761431), panobinostat (NSC761190), R-306465 (JNJ-16241199; NSC773264), adavosertib (NSC754352), TP-3654 (NSC805149), carboplatin (NSC241240), KSQ-4279 (NSC840948), and staurosporine (NSC755774) were obtained from the National Cancer Institute (NCI) Developmental Therapeutics Program Chemical Repository (34). The FDA-approved anticancer drug set is available from the NCI Developmental Therapeutics Program. […] The stock solutions were prepared in dimethyl sulfoxide (DMSO, Sigma-Aldrich, St. Louis, MO, cat. D2650) at 800-fold the tested concentration and stored at -70 degrees C prior to their use. All drugs and investigational agents were tested over a range starting from a high concentration at or near the clinical Cmax and decreasing in half-log increments. If the clinical Cmax for an agent had not been determined, the highest concentration tested was 10 microM.\n2.3 Cell Culture. All cells were maintained in an incubator at 37 degrees C and 5% CO2 with 95% humidity. The PDC lines were cultured according to standard operating procedures established by the NCI PDMR. All PDCs were thawed and cultured in Matrigel-coated flasks prepared with a working solution of 1X Ham's F-12 nutrient mix, without supplementation (Invitrogen, cat. 11765054), 100 U/mL penicillin-streptomycin (Invitrogen, cat. 15140122), and 2.5% Matrigel (Corning Inc., cat. 354248) for the first three passages. The 857933-349-R-J2-PDC line was cultured in 6C/Colon 1B media, which includes advanced DMEM/F-12 (Thermo Fisher Scientific, cat. 12634028), 10 mM HEPES (Thermo Fisher Scientific, cat. 15630080), 1X GlutaMAX supplement (Thermo Fisher Scientific, cat. 35050061), 0.1 mg/mL primocin (InvivoGen, cat. ant-pm-2), 10% defined fetal bovine serum, heat inactivated (HyClone Laboratories Inc., cat. SH30070.03HI), 50% L-WRN conditioned media (ATCC, cat. CRL-3276), 1.25 mM N-Acetyl-L-cysteine (Sigma-Aldrich, cat. A9165), 10 mM nicotinamide (Sigma-Aldrich, cat. N0636), 1X B-27 supplement (Thermo Fisher Scientific, cat. 17504044), 1X N-2 supplement (Thermo Fisher Scientific, cat. 17502048), 10 microM Y-27632 dihydrochloride (Tocris Bioscience, cat. 1254), and 50 ng/mL human EGF recombinant protein (Thermo Fisher Scientific, cat. PHG0311). The 485176-168-R4-J1-PDC line was cultured in Panc media, which includes all 6C/Colon 1B media components plus 100 ng/mL human FGF-10 (Thermo Fisher Scientific, cat. 100-26), 500 nM SB-431542 (Selleckchem, cat. S1067), and gastrin (Tocris, cat. 3006).\n[…]", "note": "Several values for one entry are separate records, joined by “and”; a condition that tells them apart may be missing. Equal entries are not always repeated."}
{"compound": "CCCS(=O)(=O)Nc1ccc(F)c(C(=O)c2c[nH]c3ncc(-c4ccc(Cl)cc4)cc23)c1F", "note": "+ Cc1[nH]c2ccc(F)cc2c1-c1nc2c3cccnc3c3ncccc3c2[nH]1", "values": [{"measurement": "IC50", "setting": "curve of first compound, second compound 0.0316 µM", "value": "> 10000", "unit": "nM"}, {"measurement": "IC50", "setting": "curve of first compound, second compound 0.1 µM", "value": "> 10000", "unit": "nM"}, {"measurement": "IC50", "setting": "curve of first compound, second compound 0.316 µM", "value": "> 10000", "unit": "nM"}, {"measurement": "IC50", "setting": "curve of first compound, second compound 1 µM", "value": 9080, "unit": "nM"}, {"measurement": "IC50", "setting": "curve of first compound, second compound 3.16 µM", "value": 8190, "unit": "nM"}, {"measurement": "IC50", "setting": "curve of first compound, second compound 10 µM", "value": 7250, "unit": "nM"}, {"measurement": "viability, T/C", "setting": "second compound 0.0316 µM, first compound 0.0316 µM", "value": 107, "unit": "%"}, {"measurement": "viability, T/C", "setting": "second compound 0.0316 µM, first compound 0.1 µM", "value": 97.7, "unit": "%"}, {"measurement": "viability, T/C", "setting": "second compound 0.0316 µM, first compound 0.316 µM", "value": 109, "unit": "%"}, {"measurement": "viability, T/C", "setting": "second compound 0.0316 µM, first compound 1 µM", "value": 101, "unit": "%"}, {"measurement": "viability, T/C", "setting": "second compound 0.0316 µM, first compound 3.16 µM", "value": 74.7, "unit": "%"}, {"measurement": "viability, T/C", "setting": "second compound 0.0316 µM, first compound 10 µM", "value": 53.3, "unit": "%"}, {"measurement": "viability, T/C", "setting": "second compound 0.1 µM, first compound 0.0316 µM", "value": 102, "unit": "%"}, {"measurement": "viability, T/C", "setting": "second compound 0.1 µM, first compound 0.1 µM", "value": 105, "unit": "%"}, {"measurement": "viability, T/C", "setting": "second compound 0.1 µM, first compound 0.316 µM", "value": 102, "unit": "%"}, {"measurement": "viability, T/C", "setting": "second compound 0.1 µM, first compound 1 µM", "value": 99.8, "unit": "%"}, {"measurement": "viability, T/C", "setting": "second compound 0.1 µM, first compound 3.16 µM", "value": 82.6, "unit": "%"}, {"measurement": "viability, T/C", "setting": "second compound 0.1 µM, first compound 10 µM", "value": 54.9, "unit": "%"}, {"measurement": "viability, T/C", "setting": "second compound 0.316 µM, first compound 0.0316 µM", "value": 110, "unit": "%"}, {"measurement": "viability, T/C", "setting": "second compound 0.316 µM, first compound 0.1 µM", "value": 104, "unit": "%"}, {"measurement": "viability, T/C", "setting": "second compound 0.316 µM, first compound 0.316 µM", "value": 105, "unit": "%"}, {"measurement": "viability, T/C", "setting": "second compound 0.316 µM, first compound 1 µM", "value": 102, "unit": "%"}, {"measurement": "viability, T/C", "setting": "second compound 0.316 µM, first compound 3.16 µM", "value": 78.9, "unit": "%"}, {"measurement": "viability, T/C", "setting": "second compound 0.316 µM, first compound 10 µM", "value": 51.2, "unit": "%"}, {"measurement": "viability, T/C", "setting": "second compound 1 µM, first compound 0.0316 µM", "value": 103, "unit": "%"}, {"measurement": "viability, T/C", "setting": "second compound 1 µM, first compound 0.1 µM", "value": 107, "unit": "%"}, {"measurement": "viability, T/C", "setting": "second compound 1 µM, first compound 0.316 µM", "value": 105, "unit": "%"}, {"measurement": "viability, T/C", "setting": "second compound 1 µM, first compound 1 µM", "value": 105, "unit": "%"}, {"measurement": "viability, T/C", "setting": "second compound 1 µM, first compound 3.16 µM", "value": 79.6, "unit": "%"}, {"measurement": "viability, T/C", "setting": "second compound 1 µM, first compound 10 µM", "value": 47.3, "unit": "%"}, {"measurement": "viability, T/C", "setting": "second compound 3.16 µM, first compound 0.0316 µM", "value": 98.3, "unit": "%"}, {"measurement": "viability, T/C", "setting": "second compound 3.16 µM, first compound 0.1 µM", "value": 92.7, "unit": "%"}, {"measurement": "viability, T/C", "setting": "second compound 3.16 µM, first compound 0.316 µM", "value": 102, "unit": "%"}, {"measurement": "viability, T/C", "setting": "second compound 3.16 µM, first compound 1 µM", "value": 109, "unit": "%"}, {"measurement": "viability, T/C", "setting": "second compound 3.16 µM, first compound 3.16 µM", "value": 71.3, "unit": "%"}, {"measurement": "viability, T/C", "setting": "second compound 3.16 µM, first compound 10 µM", "value": 45.6, "unit": "%"}, {"measurement": "viability, T/C", "setting": "second compound 10 µM, first compound 0.0316 µM", "value": 98.1, "unit": "%"}, {"measurement": "viability, T/C", "setting": "second compound 10 µM, first compound 0.1 µM", "value": 104, "unit": "%"}, {"measurement": "viability, T/C", "setting": "second compound 10 µM, first compound 0.316 µM", "value": 102, "unit": "%"}, {"measurement": "viability, T/C", "setting": "second compound 10 µM, first compound 1 µM", "value": 105, "unit": "%"}, {"measurement": "viability, T/C", "setting": "second compound 10 µM, first compound 3.16 µM", "value": 74.6, "unit": "%"}, {"measurement": "viability, T/C", "setting": "second compound 10 µM, first compound 10 µM", "value": 40.4, "unit": "%"}]}
{"compound": "CC1COCCN1c1cc(C2(O)CC3CCC(C2)O3)c2cnn(-c3ccn[nH]3)c2n1", "note": "(stereo not drawn)", "values": [{"measurement": "viability, T/C", "setting": "compound 0.0316 µM", "value": "71.4% and 88.3% and 80.1%"}, {"measurement": "viability, T/C", "setting": "compound 0.1 µM", "value": "28.2% and 38.6% and 42.2%"}, {"measurement": "viability, T/C", "setting": "compound 0.316 µM", "value": "23.5% and 28.2% and 31.8%"}, {"measurement": "viability, T/C", "setting": "compound 1 µM", "value": "21.8% and 24.9% and 25.9%"}, {"measurement": "viability, T/C", "setting": "compound 3.16 µM", "value": "19.8% and 24.2% and 26.4%"}, {"measurement": "viability, T/C", "setting": "compound 10 µM", "value": "14.5% and 15.5% and 18.8%"}, {"measurement": "IC50", "setting": "curve of compound", "value": "56.8 nM and 79 nM and 82.7 nM"}]}
{"compound": "COc1cc(C2c3cc4c(cc3C(OC3OC5COC(C)OC5C(O)C3O)C3COC(=O)C23)OCO4)cc(OC)c1O", "note": "(stereo not drawn)", "values": [{"measurement": "viability, T/C", "setting": "compound 0.0316 µM", "value": "99.6% and 98.6% and 97.5%"}, {"measurement": "viability, T/C", "setting": "compound 0.1 µM", "value": "88.2% and 81.7% (2×)"}, {"measurement": "viability, T/C", "setting": "compound 0.316 µM", "value": "55.6% and 52.5% and 61.4%"}, {"measurement": "viability, T/C", "setting": "compound 1 µM", "value": "49.3% and 48.9% and 58.8%"}, {"measurement": "viability, T/C", "setting": "compound 3.16 µM", "value": "36% and 29.3% and 42.2%"}, {"measurement": "viability, T/C", "setting": "compound 10 µM", "value": "18.6% and 14.3% and 22%"}, {"measurement": "IC50", "setting": "curve of compound", "value": "837 nM and 645 nM and 1340 nM"}]}
{"compound": "CC[C@@]1(O)C(=O)OCc2c1cc1n(c2=O)Cc2cc3c(CN(C)C)c(O)ccc3nc2-1", "values": [{"measurement": "viability, T/C", "setting": "compound 0.000999 µM", "value": "105% (2×) and 108%"}, {"measurement": "viability, T/C", "setting": "compound 0.00316 µM", "value": "94.7% and 93.8% and 94.1%"}, {"measurement": "viability, T/C", "setting": "compound 0.00999 µM", "value": "98% and 95.1% and 105%"}, {"measurement": "viability, T/C", "setting": "compound 0.0316 µM", "value": "84.5% and 87.9% and 69.8%"}, {"measurement": "viability, T/C", "setting": "compound 0.0999 µM", "value": "43.6% and 53.2% and 39.2%"}, {"measurement": "viability, T/C", "setting": "compound 0.316 µM", "value": "49.1% and 51.8% and 48.5%"}, {"measurement": "IC50", "setting": "curve of compound", "value": "89.5 nM and > 316 nM and 76 nM"}]}
